Here are results for 7 compounds from publication PMC2951065 (Journal of Medicinal Chemistry, 2010).

One may read the IC50 as the concentration at which inhibition is half-maximal. The low end stands for greater potency in that assay, the high end for weaker potency in that assay.

Data set [1] has as its target T1, phosphatase domain of PHLPP2 (Homo sapiens, UniProt Q6ZVD8).
T1 sequence (Q6ZVD8 785-1033 limits assumed): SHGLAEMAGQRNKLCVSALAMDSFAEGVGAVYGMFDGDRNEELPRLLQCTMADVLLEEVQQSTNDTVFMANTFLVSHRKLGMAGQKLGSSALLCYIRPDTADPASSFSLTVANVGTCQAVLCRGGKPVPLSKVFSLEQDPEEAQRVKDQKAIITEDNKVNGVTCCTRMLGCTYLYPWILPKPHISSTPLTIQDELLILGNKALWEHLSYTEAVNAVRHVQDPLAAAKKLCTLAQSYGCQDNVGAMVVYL
Briefly: In vitro inhibition of PHLPP2 phosphatase domain, pNPP as substrate. It counts as biochemical. The settings on record: for mechanism (type) of inhibition: with respect to pNPP.

The target of another data set is PP1 (Oryctolagus cuniculus, UniProt P62139). The experiment in a line: Selectivity toward other phosphatases: PP1, pNPP. Type of data set: biochemical.
Chain of PP1 (P62139 whole entry): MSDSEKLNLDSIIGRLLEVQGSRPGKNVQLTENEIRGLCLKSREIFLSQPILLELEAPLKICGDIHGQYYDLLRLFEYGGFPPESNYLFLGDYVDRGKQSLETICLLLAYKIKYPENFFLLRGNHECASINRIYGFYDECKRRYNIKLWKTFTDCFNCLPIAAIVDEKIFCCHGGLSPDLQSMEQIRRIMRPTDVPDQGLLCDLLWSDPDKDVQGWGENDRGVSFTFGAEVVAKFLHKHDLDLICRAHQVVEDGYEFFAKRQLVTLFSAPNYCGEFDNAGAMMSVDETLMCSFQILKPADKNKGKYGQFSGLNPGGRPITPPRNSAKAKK
Data set [2] deals with COS 7 cells. Type of data set: cell-based.
The target of another data set is T2, PP2Cα (Homo sapiens, UniProt P35813).
T2 sequence (P35813 1-382): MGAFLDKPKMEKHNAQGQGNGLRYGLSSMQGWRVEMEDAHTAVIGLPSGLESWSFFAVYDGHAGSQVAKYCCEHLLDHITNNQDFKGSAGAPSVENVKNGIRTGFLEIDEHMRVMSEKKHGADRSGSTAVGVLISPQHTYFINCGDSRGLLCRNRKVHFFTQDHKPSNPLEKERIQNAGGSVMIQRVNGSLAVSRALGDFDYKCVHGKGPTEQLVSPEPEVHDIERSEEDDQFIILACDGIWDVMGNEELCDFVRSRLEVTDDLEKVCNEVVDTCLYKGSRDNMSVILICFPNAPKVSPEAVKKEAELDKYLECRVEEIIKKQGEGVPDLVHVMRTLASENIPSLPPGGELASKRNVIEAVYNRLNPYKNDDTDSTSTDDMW
The experiment in a line: Selectivity toward other phosphatases: PP2Cα, pNPP. Type of data set: biochemical.

Data set [3] has as its system COS 7 cells. Briefly: Apoptosis assay: etoposide-induced cell death, Trypan Blue exclusion. The settings on record: for etoposide-induced increase in apoptotic cells: COS 7, 0.1% FBS.
The target in a further data set is PP2B/calcineurin (Homo sapiens, UniProt Q08209). Briefly: Selectivity toward other phosphatases: PP2B, pNPP. Type of data set: biochemical.
Chain of PP2B/calcineurin (P63098 whole entry, other chains not shown): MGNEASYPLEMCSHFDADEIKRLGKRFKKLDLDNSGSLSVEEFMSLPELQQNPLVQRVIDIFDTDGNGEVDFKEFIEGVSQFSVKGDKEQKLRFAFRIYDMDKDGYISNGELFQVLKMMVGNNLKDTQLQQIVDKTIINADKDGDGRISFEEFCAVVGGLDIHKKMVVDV
Data set [4] is described as follows: Precipitation in cell culture medium. It counts as physicochemical.
The subject of data set [5] is COS 7 cells. Briefly: Agonist. It counts as cell-based.
Setting [6] is: 50 μM pretreatment 30 min, etoposide 24 h.
[7] abbreviates: highest concentration tested (100 μM).
The mark [8] stands for this setting: 10-fold higher concentration than 10 μM.

Molecules are shown by their SMILES. Structures can show the parent of a compound that is named as a salt. Bounds are passed on as bounds.

As to `COc1ccc(NCc2c(O)ccc3ccccc23)cc1` [Compound 2], in [1], the “mechanism (type) of inhibition” value was “Noncompetitive”.

Compound `Cc1cc(/N=N/c2ccc(/N=N/c3ccc(O)c(C(=O)O)c3)cc2)c(N)cc1N` [Compound 13, 1,3-[[4-(2,4-diamino-5-methylphenyl)diazenylphenyl]hydrazinylidene]-6-oxocyclohexa-1,4-diene-1-carboxylic acid] gave an IC50 against PP1 of approximately 100 µM. Moreover, in the data set on COS 7 cells [2] (cells grown in serum, data not shown), the “modulation of Ser473 phosphorylation” value is reported as “considerably less effective”. Further, in the data set with COS 7 cells [2] (serum-starved COS 7, 35 min), the “increase in the phosphorylation of Ser473 (basal Akt)” value was “approximately 4 fold” and the “sensitivity of phosphorylation of Akt on Thr308 compared with Ser473” value was “not significantly different”. The “mechanism (type) of inhibition” value in data set [1] is given as “noncompetitive”. At PP2Cα, this compound showed an IC50 of approximately 100 µM. Besides, the “effect on etoposide-induced increase in apoptotic cells” value with COS 7 cells [3] (setting [6]) is “essentially abolished”. Moreover, on PP2B/calcineurin (setting [7]), the “effect on PP2B activity” value is listed as “neither molecule affected the activity”.

For `COc1cc(NCCC2CCCCN2)c2ncccc2c1` (stereo not drawn) [Compound 4], in data set [1], the “mechanism (type) of inhibition” value is reported as “uncompetitive”. For the same compound, in the data set on HT29 cells (HT29, 24 h), the toxicity to cells result was “induced cells to detach from culture dishes, reflecting toxicity”. In the data set with HT29 cells (HT29, 24 h, 100 or 250 μM), the “phosphorylation of downstream substrates GSK3 α/β (Ser21/9) and FoxO1/3α (Thr 24/32); Akt activity” value (from here on “phosphorylation … Akt activity”) is “corresponding increases”.

Regarding `COc1cc([C@@H]2c3cc4c(cc3[C@@H](O[C@@H]3O[C@@H]5CO[C@@H](C)O[C@H]5[C@H](O)[C@H]3O)[C@H]3COC(=O)[C@H]23)OCO4)cc(OC)c1O` [Etoposide, etoposide, reference compound], in the data set on COS 7 cells [3] (setting [6]), the “etoposide-induced increase in apoptotic cells” value is listed as 3.4 ± 0.4 fold.

As to `COc1ccc2nc3cc(Cl)ccc3c(Nc3ccc(C(=O)O)cc3)c2c1` [Compound 24], the “phosphorylation … Akt activity” value in the data set with HT29 cells (HT29, 24 h, 100 or 250 μM) is “corresponding increases”.

For the compound `NS(=O)(=O)c1ccc(/N=N/c2ncccc2O)cc1` [Compound 7], the “mechanism (type) of inhibition” value in data set [1] is “Competitive”.

For `Nc1c(S(=O)(=O)O)cc(Nc2cccc(S(N)(=O)=O)c2)c2c1C(=O)c1ccccc1C2=O` [Compound 1, 1-amino-9,10-dioxo-4-(3-sulfamoylanilino)anthracene-2-sulfonic acid, sodium salt], the IC50 was approximately 100 µM on PP1, 5.45 ± 0.05 µM in [1] and approximately 100 µM on PP2Cα. Further, on PP1 (10 μM compound), the “effect on PP1 activity” value is “no significant effect”. Further, the “inhibition of PP1” value against PP1 (setting [8]) is “approximately 50%”. Besides, the “concentration at which compound tends to precipitate in the cell culture medium” value in data set [4] was more than 300 µM. Moreover, in the data set on COS 7 cells [2], the “selectivity for Ser473 compared to Thr308” value was “almost 1 order of magnitude”. For the same compound, the “increase in the phosphorylation of Ser473 (basal Akt)” value in the data set on COS 7 cells [2] (serum-starved COS 7, 35 min) is recorded as “approximately 6 fold”. For the same compound, the “selectivity for PHLPP over the other phosphatases tested” value in [1] (vs PP1, PP2B, PP2Cα) is recorded as “over an order of magnitude”. Further, the “mechanism (type) of inhibition” value in data set [1] is “noncompetitive”. Moreover, the “effect on PP2Cα activity” value on PP2Cα (10 μM compound) is “no significant effect”. The “inhibition of PP2Cα” value against PP2Cα (setting [8]) is “approximately 50%”. Moreover, in the data set with COS 7 cells [3] (50 μM compound, no etoposide), the “basal level of apoptotic cells” value was “approximately 12%”. In the data set on COS 7 cells [3] (setting [6]), the “reduction of the magnitude of the etoposide-induced increase in apoptotic cells” value is recorded as “approximately 30%”. The “etoposide-induced increase in apoptotic cells” value with COS 7 cells [3] (setting [6]) is 2.6 ± 0.3 fold. For the same compound, the “effect on PP2B activity” value is “no significant effect” on PP2B/calcineurin (10 μM compound) and “neither molecule affected the activity” at PP2B/calcineurin (setting [7]). Moreover, the “EGF-evoked increase in p308 phosphorylation” value with COS 7 cells [5] (50 μM pretreatment, then EGF) is “approximately 6 fold”. The “basal phosphorylation at Ser473 compared with DMSO” value with COS 7 cells [5] (50 μM, 35 min pretreatment, serum-starved COS 7) is given as “significantly higher”. In addition, in the data set with HT29 cells (HT29, 5% FBS, 24 h, 100 or 250 μM), the “phosphorylation of Akt on Ser 473” value is “increased Akt phosphorylation and activity in cells”. In the data set with HT29 cells (HT29, 24 h, 100 or 250 μM), the “phosphorylation … Akt activity” value was “corresponding increases”.
